Laboratory results from patent US9592223B2, “Small molecule inhibitors of MALT1” (Cornell University, priority 2012, dated 2017).

Columns and labels:
[1] = Toxicity 1: increasing daily IP doses over 10 days; assay type: in vivo, C57BL/6 mice; conditions: daily IP 0.05 to 25 mg/kg over 10 days, cumulative 51.1 mg/kg
Description: Brain, heart, lung, liver, kidney, bowel, spleen, thymus and bone marrow tissues were examined. […] Myeloid to erythroid ratio was 4-5:1. Megakaryocytes were normal in number and distribution. There was no fibrosis nor increased number of blasts or lymphocytes. Complete peripheral blood counts, biochemistry and liver function tests were normal (Table 2).

[2] = system: MALT1^C464A (inactive mutant) NF-κB activation; assay: NF-κB reporter assay in 293T cells, PMA/ionomycin, BCL10 and MALT1 C464A; assay type: cell-based; conditions: pre-treatment
Description: Antigen receptor-mediated NF-κB signaling partly depends on MALT1 activity (Ruefli-Brasse et al., 2003; Ruland et al., 2003). […] First, 293T cells were transfected with the NF-κB reporter vector (NF-κB)5-luc2CP-pGL4 (harboring 5 copies of the NF-κB consensus response element and a destabilized Firefly luciferase) and TK-pRL control together with plasmids expressing BCL10 and either MALT1^WT or MALT1^C464A. […] HBL-1 was transfected with the reporter construct (NF-κB)5-luc2CP-pGL4 and TK-pRL control.
Reporter assays were performed in 293T cells seeded at a density of 2×10^5 cells per well of a 12-well dish. 100 ng of (NF-κB)5-Luc2CP-pGL4 and 10 ng of TK-Renilla internal control plasmid were cotransfected along with 25 ng of the indicated plasmids (MIGR1-MALT1^WT or MIGR1-MALT1^C464A and pcDNA4-Flag-Bcl10) using Lipofectamine 2000 (Invitrogen). Lysates were submitted to dual luciferase assays following manufacturer's protocol (Promega). In HBL-1, 5 μg of (NF-κB)5-Luc2CP-pGL4 and 50 ng of TK-Renilla internal control plasmid per 5×10^6 cells were cotransfected using nucleofection (Amaxa, Lonza, Basel, Switzerland). Forty-eight hours after transfection, cells were plated at a density of 5×10^4 cells per well of a 24-well plate and treated as indicated. Lysates were submitted to dual luciferase assays following manufacturer's protocol (Promega).

[3] = system: HBL-1 and TMD8 cells; assay: Trypan blue exclusion and Annexin V+ DAPI- apoptosis over 14 days, ABC-DLBCL lines; assay type: cell-based, human; conditions: treated daily at GI25 and GI50, every 48 hr for 14 days
Method: Cell proliferation was examined using the CFSE dilution assay by flow cytometry on viable cells at 48, 72 and 96 h. […] Trypan blue exclusion and apoptosis assessed by Annexin V^+ DAPI^− flow cytometry was measured every 48 hr for a period of 14 days.
Apoptosis was assessed by AnnexinV-APC/DAPI (BD Pharmingen) staining followed by flow cytometry.

[4] = system: HBL-1 ABC-DLBCL xenografts; assay: HBL-1 xenograft in NOD-SCID mice; assay type: in vivo; conditions: IP 25 mg/kg/day
Method: Animals were sacrificed 24 hr after the fourteenth injection.
Eight-week old male SCID NOD.CB17-Prkdc^scid/J mice were subcutaneously injected with low-passage 10^7 human HBL-1, TMD8 or OCI-Ly1 cells. Treatment was administered by intra-peritoneal injection. Tumor volume was monitored by three-weekly digital calipering. All procedures followed US NIH protocols and were approved by the Animal Institute Committee of the Weill Cornell Medical College.
Eight-week old male SCID NOD.CB17-Prkdc^scid/J mice were purchased from Jackson Laboratories (Bar Harbor, Minn.) and housed in a clean environment. Mice were subcutaneously injected with low-passage 10^7 human TMD8 or OCI-Ly1 cells in 50% matrigel (BD Biosciences, #354234). Treatment was initiated when tumors reached an average size of 120 mm^3 (17 days post-transplantation). Drugs were reconstituted in DMSO and stored at −80° C. until used and were administered by intra-peritoneal injection. Tumor volume was monitored by three-weekly digital calipering (Fisher Scientific, Thermo Scientific, Rockford, Ill.) and calculated using the formula (smallest diameter^2×largest diameter)/2. Data were expressed as mean±SEM, and differences were considered statistically significant at p<0.05 by paired Student's t-test. All procedures involving animals followed US NIH protocols and were approved by the Animal Institute Committee of the Weill Cornell Medical College of Cornell University.
Paraffin-embedded tumor xenografts were sectioned, dewaxed and submitted to antigen retrieval. For IF-P, Alexa Fluor-488 conjugated secondary antibodies from Invitrogen where used and cell nuclei where counterstained with DAPI. Fluorescent images were taken using an Axiovert 200M fluorescent microscope (Carl Zeiss Inc., Thornwood, N.Y.). Oberkochen, Germany). For IHC, biotin-conjugated secondary antibodies where used. Then avidin/biotin peroxidase was applied to the slides (Vector Laboratories). Color was developed with diaminobenzoate chromogen peroxidase substrate (Vector) and counterstained with hematoxilin-eosyn. […]

[5] = system: Caspase-3/7 activity; assay: Caspase-3/7 activity or apoptosis in cell-based assays; conditions: concentrations which suppress MALT1
[6] = biological target: T1, LZ-MALT1 (Homo sapiens, UniProt Q9UDY8); assay: Dose-effect and time-course of MALT1 inhibition (pre-incubation, then Ac-LRSR-AMC); assay type: biochemical; conditions: pre-incubation 5 to 80 minutes
T1 construct: His tag (N); made in house; host or cells: E. coli
Method: The reactions were monitored in a SpectraMax M5 plate reader (Molecular Devices, Sunnyvale, Calif. USA) with excitation/emission wavelength at 360/465 nm and 20 seconds intervals. Normalized percentage of inhibition was calculated with the following formula: (M(T2-T1)−N(T2-T1))/(P(T2-T1)−N(T2-T1))*100, where M(T2-T1) is the difference signal of compound at time point 200s and 0s, N(T2-T1) is the difference signal of negative control buffer only, P(T2-T1) is the difference signal of positive control Z-VRPR-FMK.

T1 sequence (Q9UDY8 with tags, fused parts or gaps limits assumed): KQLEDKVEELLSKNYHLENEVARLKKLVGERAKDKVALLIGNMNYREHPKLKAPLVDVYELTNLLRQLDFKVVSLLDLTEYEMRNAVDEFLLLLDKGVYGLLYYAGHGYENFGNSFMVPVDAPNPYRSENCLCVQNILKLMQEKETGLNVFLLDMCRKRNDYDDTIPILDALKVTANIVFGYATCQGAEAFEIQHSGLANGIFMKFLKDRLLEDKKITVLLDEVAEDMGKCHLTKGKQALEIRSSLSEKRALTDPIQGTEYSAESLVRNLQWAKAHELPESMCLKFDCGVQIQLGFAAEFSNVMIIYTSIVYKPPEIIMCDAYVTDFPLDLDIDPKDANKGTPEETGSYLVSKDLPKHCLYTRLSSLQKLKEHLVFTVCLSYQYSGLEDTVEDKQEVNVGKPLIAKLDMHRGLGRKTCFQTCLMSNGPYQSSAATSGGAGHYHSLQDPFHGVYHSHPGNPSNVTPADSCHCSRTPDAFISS

COCCOc1nc(-c2ccc(Cl)c(Cl)c2)n(-c2ccc(NC(=O)CCl)cc2)n1 [MI-2]
physical indicators of sickness [1]: no evidence of lethargy, weight loss | NF-κB induction by PMA/ionomycin stimulation [2]: did not significantly affect | viability and apoptosis [3]: profoundly suppressed | xenograft growth vs. vehicle ([4]; fourteen injections, p=0.014): profoundly suppressed the growth | proliferation (Ki-67 staining) ([4]; p<0.0001): significant decrease in proliferation | apoptotic cells (TUNEL assay) ([4]; p=0.0008): significant increase in apoptotic cells | inhibition of Caspase-3/7 activity or apoptosis [5]: did not inhibit | kind of inhibition (time dependence) [6]: covalent and irreversible inhibition | percent MALT1 inhibition reached [6]: ~100%
